From patent publication US11304919B2, “Utilization of cilastatin in inhibiting renal disorder” (NIIGATA UNIVERSITY, priority 2018, dated 2022)

Tests used:
[1] = target: megalin (Rattus norvegicus, UniProt P98158); experiment: Direct binding of contrast solid-phased magnetic beads to megalin in brush border proteins, WB with anti-megalin antibody (Reference Example 4); parameters: the cortex portions of Sprague-Dawley (SD) rats were ground to prepare a suspension; from tissue; host or cells: Sprague-Dawley rat kidney cortex (brush border proteins, method of Orlando et al.); conditions: 0 mM and 10 mM iomeprol solid-phased beads; rat BBP 1 mg/mL; 4° C., 4 h; FIG. 20
Protocol: Direct binding between an iodinated contrast medium and megalin was verified using contrast solid-phased magnetic beads.
A starting powder of iodinated contrast medium was dissolved, just before use, in glycidylmethacrylate-coated magnetic beads (FG Beads®, particle size: 0.2 μm, produced by Tamagawa Seiki Co., Ltd.) to initiate chemical bonding between surface carboxyl groups and hydroxyl groups present in the contrast medium, whereby contrast solid-phased magnetic beads were prepared.
The contrast medium iomeprol was purchased from BOC Science.
At feed concentrations of 0 mM, 3 mM and 10 mM, iomeprol was brought to a solid phase by chemical bonding. The preparation of the iomeprol solid-phased beads was contracted to Tamagawa Seiki Co., Ltd.
According to the method of Orlando, et al. (Proc. Natl. Acad. Sci. USA, 1992, vol. 89, p. 6698-6702), the cortex portions of Sprague-Dawley (SD) rats were ground to prepare a suspension, which was adjusted to a protein concentration of 1 mg/mL to obtain a BBP solution.
Five milligrams each of the 0 mM and 10 mM contrast solid-phased magnetic beads were dispersed and washed in 200 μL of 100 mM KCL buffer (20 mM HEPES-NaOH (pH 7.9), 100 mM KCl, 1 mM MgCl2, 0.2 mM CaCl2), 0.2 mM EDTA, 10% (v/v) glycerol, 0.1% NP-40, 1 mM DTT, 0.2 mM PMSF). […]

[2] = tested on: C57BL/6J mice; experiment: Murine model of contrast nephropathy (Reference Example 1); assay type: in vivo, mouse
Protocol: Murine models of contrast nephropathy were constructed.
Left kidneys were extracted from C57BL/6J mice (male, aged 9-12 weeks, Charles River Laboratories International), and 14 days later, right kidney pedicles were ligated for 30 minutes. Thereafter, reperfusion was carried out. For the iomeprol-treated group, 200 μL of iomeprol was administered from the tail vein after 24 hours from the start of reperfusion. For the control group, 200 μL of normal saline instead of iomeprol was administered from the tail vein. After 48 hours from the administration, the animals in both groups were euthanized and evaluated.
For 24 hours before euthanization, urine samples were collected using a metabolic cage. […] The collected blood samples were centrifuged for 30 minutes at 800 g at room temperature to separate and collect the serum. The obtained urine and serum samples were stored at −80° C. until analysis.
For biochemical evaluation of renal injuries, serum creatinine (Cr) and urea nitrogen (MN) levels, and urinary Cr and β-D-N-acetylglucosaminidase (NAG) were measured. Serum MN and Cr measurements were contracted to Oriental Yeast Co., Ltd., and urinary NAG and Cr measurements were to SRL, Inc.
The obtained thin slices were stained with periodic acid-Shiff (PAS) and immunostained with the renal injury marker Kidney Injury Molecule-1 (KIM-1). The immunostaining was performed using VECTASTAIN Elite ABC Kit (Vector Laboratories, Inc.).

Chain of megalin (P98158 26-4660): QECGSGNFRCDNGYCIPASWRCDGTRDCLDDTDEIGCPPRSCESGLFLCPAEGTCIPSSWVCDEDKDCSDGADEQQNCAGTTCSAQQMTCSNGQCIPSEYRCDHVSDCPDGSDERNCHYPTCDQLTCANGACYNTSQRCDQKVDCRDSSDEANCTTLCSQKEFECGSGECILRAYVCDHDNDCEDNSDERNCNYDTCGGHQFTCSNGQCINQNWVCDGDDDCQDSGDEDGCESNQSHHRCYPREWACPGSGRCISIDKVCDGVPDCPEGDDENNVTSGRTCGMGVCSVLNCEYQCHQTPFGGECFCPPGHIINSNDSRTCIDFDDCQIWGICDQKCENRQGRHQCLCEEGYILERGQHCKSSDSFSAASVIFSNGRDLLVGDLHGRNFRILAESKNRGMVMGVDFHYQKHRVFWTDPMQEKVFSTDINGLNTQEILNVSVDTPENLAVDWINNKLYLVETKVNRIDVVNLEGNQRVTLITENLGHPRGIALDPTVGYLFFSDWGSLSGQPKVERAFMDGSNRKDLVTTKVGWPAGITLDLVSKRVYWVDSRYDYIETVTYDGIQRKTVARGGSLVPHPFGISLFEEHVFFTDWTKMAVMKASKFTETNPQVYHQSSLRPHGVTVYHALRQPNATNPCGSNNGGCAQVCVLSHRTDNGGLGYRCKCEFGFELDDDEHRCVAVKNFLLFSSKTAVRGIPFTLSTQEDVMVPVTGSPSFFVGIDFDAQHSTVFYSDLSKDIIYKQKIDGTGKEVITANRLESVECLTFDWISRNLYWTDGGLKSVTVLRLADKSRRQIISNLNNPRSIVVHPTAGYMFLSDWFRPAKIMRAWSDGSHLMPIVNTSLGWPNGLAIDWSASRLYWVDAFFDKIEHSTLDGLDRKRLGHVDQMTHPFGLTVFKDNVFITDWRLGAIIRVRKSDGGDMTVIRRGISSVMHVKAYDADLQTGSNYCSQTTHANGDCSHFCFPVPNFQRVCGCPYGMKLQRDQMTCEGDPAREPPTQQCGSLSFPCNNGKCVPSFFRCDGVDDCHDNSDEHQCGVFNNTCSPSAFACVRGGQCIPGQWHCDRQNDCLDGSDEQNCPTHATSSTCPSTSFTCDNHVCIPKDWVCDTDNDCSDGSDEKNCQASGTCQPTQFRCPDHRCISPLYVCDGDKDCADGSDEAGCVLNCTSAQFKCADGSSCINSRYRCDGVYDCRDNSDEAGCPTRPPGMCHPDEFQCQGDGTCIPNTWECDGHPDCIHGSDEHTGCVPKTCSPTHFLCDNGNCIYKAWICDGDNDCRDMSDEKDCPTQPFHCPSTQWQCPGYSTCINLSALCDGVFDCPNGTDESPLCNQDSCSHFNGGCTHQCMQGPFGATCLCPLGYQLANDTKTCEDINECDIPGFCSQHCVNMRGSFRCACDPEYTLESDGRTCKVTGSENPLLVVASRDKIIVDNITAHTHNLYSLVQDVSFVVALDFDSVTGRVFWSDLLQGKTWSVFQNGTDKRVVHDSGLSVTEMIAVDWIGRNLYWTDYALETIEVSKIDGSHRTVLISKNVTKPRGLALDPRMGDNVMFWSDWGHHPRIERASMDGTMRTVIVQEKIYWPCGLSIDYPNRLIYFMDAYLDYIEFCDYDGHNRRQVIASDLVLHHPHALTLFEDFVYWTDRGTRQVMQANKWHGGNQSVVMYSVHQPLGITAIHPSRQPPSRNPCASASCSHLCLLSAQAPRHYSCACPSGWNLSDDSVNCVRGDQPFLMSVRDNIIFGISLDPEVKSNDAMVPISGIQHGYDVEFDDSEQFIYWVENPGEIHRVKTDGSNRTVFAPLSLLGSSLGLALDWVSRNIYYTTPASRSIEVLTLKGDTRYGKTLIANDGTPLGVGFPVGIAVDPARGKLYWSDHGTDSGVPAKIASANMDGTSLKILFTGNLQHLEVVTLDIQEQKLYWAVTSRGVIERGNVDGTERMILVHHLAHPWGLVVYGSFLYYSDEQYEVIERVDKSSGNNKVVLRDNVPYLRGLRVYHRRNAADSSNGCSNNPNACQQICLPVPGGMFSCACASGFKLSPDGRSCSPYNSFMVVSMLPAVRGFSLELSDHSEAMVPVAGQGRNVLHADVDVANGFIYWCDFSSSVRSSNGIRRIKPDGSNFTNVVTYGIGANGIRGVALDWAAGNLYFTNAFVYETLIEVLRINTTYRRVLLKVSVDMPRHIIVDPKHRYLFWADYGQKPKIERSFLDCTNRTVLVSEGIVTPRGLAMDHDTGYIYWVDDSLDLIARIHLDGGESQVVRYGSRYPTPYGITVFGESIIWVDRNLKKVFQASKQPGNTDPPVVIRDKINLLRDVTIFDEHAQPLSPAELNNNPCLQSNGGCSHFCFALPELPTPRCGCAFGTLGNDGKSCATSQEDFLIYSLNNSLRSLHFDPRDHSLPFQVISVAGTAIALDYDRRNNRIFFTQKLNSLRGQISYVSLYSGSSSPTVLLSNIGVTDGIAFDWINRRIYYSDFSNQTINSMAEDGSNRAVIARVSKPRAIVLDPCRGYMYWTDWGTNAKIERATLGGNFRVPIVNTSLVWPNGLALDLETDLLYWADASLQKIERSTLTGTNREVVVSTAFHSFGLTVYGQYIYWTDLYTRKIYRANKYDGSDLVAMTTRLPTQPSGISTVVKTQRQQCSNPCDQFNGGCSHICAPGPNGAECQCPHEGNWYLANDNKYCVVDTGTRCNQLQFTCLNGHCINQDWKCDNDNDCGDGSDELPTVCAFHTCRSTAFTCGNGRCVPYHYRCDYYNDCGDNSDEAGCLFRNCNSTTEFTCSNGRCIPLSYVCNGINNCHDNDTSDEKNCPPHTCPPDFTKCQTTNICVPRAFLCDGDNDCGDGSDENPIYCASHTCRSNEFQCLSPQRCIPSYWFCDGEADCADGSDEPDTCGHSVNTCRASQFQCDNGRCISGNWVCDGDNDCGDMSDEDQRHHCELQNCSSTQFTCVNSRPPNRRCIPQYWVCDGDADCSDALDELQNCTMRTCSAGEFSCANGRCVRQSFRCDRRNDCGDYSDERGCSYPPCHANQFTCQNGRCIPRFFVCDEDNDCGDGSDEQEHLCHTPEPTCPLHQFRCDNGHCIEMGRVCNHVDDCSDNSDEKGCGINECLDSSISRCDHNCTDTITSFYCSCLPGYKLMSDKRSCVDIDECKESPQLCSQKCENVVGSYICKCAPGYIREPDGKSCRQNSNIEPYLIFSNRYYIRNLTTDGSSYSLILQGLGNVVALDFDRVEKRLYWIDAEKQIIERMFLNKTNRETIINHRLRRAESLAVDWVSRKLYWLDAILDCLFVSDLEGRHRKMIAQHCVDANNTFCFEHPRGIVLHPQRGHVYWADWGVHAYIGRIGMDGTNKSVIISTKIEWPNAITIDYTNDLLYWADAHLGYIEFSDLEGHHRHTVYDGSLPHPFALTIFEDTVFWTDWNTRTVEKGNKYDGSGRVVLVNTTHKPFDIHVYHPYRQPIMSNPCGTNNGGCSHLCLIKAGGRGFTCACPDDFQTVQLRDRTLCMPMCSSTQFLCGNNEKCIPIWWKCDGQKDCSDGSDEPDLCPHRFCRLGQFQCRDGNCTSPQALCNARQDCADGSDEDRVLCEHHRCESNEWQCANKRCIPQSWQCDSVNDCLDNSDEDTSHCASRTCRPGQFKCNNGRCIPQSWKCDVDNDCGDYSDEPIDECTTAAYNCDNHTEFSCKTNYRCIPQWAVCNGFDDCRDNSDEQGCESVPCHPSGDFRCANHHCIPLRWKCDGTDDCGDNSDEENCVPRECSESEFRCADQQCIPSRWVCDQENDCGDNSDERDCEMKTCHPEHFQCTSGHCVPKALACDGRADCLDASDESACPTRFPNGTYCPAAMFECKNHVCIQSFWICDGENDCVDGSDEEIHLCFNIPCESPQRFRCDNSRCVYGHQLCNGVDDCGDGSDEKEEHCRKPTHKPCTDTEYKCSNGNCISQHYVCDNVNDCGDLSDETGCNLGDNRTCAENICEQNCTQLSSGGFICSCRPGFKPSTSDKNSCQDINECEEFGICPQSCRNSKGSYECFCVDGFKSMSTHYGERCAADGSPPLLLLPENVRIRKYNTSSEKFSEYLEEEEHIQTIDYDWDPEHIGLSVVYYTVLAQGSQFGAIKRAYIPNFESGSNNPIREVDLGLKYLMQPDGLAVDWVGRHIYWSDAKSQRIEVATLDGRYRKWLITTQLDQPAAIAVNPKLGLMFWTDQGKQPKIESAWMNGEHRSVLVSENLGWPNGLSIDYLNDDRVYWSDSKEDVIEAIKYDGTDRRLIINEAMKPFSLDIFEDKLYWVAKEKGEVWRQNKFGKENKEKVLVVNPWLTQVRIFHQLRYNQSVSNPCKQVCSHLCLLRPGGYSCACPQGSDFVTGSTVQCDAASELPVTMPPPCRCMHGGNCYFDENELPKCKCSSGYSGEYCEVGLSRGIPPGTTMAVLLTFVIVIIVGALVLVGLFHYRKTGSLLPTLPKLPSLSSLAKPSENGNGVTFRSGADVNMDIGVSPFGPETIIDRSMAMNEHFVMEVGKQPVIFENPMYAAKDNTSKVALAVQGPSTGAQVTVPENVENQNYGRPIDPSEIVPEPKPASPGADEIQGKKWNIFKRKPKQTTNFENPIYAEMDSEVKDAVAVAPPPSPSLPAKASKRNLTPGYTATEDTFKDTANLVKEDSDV

In the case of `CN(C(=O)CO)c1c(I)c(C(=O)NCC(O)CO)c(I)c(C(=O)NCC(O)CO)c1I` (stereo not shown) [iomeprol], the “megalin band in eluted samples after reaction of BBP with contrast medium-bound beads (WB)” value [1] is reported as “not detected”, the “serum Cr compared to the control (NS) group” value ([2]; 200 μL iomeprol tail vein 24 h after reperfusion, evaluated 48 h after administration, FIG. 1) is reported as “significant (t-test) increase” and the “KIM-1 expression in kidney tissue (immunostaining)” value ([2]; 200 μL iomeprol, 48 h after administration, FIG. 2) is reported as “widely expressed mainly in the S1 and S2 segments of renal proximal tubular epithelial cells”. The “PAS staining of kidney tissue” value ([2]; 200 μL iomeprol, 48 h after administration, FIG. 3) was “formation of vacuoles was observed”.
